Test results: US7332296B2, “Screening assay for enzymes involved in pathophysiology using SELDI-TOF mass spectrometry” (Wright State University, priority 2004, dated 2008)
Each block holds one compound with its values, some of them ahead of it.

Assays:
[1] = biological target: T1, Plasma ACE1 (Mus musculus, UniProt P09470); test: SELDI-TOF-MS assay of ACE activity in plasma (Ang I substrate, Ang II product); assay type: biochemical; conditions: data not shown
T1 construct: Plasma ACE1 converted Ang I (Ang 1-10; 1296.5 m/z) to Ang II; from tissue; host or cells: mouse plasma (crude, 0.5 µl)
T1 sequence (P09470 35-1237 limits assumed): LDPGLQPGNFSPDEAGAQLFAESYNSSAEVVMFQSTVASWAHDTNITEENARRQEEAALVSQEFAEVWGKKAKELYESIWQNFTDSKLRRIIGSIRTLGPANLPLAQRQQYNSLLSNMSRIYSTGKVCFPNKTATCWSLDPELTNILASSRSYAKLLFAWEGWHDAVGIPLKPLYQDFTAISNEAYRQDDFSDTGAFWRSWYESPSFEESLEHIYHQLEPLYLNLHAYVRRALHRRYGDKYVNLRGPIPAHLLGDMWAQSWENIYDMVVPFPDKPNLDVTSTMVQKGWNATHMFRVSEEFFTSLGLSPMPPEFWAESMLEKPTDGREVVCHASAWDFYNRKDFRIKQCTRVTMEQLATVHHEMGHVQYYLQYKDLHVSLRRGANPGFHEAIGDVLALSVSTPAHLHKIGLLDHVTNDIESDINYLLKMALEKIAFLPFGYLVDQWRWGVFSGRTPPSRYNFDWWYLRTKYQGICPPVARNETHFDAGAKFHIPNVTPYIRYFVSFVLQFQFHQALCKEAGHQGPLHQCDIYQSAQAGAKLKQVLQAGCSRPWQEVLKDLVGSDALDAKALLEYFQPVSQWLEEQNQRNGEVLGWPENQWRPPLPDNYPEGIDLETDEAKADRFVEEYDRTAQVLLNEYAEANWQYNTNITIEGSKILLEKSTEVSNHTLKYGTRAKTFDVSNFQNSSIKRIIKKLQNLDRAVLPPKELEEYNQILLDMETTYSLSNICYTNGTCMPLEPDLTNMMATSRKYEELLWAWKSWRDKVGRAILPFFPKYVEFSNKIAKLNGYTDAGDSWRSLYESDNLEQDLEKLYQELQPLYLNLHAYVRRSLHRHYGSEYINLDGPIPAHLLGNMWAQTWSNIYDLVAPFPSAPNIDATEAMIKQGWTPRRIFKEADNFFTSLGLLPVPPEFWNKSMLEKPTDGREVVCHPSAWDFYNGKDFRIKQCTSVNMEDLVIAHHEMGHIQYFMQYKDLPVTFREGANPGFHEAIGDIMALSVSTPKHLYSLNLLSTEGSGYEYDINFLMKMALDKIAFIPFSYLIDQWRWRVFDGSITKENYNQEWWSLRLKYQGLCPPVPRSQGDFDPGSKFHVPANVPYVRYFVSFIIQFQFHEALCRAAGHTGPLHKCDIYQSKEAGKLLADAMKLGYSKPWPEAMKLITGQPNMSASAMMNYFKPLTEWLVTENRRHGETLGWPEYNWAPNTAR

[2] = biological target: T2, renin (Mus musculus, UniProt P06281); test: SELDI-TOF-MS assay of renin activity in plasma (AGT substrate; sequential renin and ACE1); assay type: biochemical; conditions: AGT + plasma + captopril (10 μM); FIG. 1F
T2 construct: Plasma incubated with AGT (1759, m/z) results in peptides with m/z that matched Ang 1 and Ang II; from tissue; host or cells: mouse plasma (crude, 0.5 µl)
T2 sequence (P06281 72-402): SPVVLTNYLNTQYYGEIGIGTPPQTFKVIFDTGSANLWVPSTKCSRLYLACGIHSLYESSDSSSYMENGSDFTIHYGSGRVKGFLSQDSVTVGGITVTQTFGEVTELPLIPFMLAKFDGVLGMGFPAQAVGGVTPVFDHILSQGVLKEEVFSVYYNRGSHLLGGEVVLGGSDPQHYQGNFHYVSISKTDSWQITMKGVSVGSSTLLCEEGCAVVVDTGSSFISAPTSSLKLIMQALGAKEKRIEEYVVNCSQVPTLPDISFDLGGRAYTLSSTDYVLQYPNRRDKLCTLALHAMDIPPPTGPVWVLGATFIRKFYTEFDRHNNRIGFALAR
Experimental: For measurement of enzyme activities, substrates (Ang II or AGT) were incubated with plasma or tissue extracts and the peptide products were measured using SELDI-TOF MS. For ACE activity, plasma (0.5-2.5 μl) or tissue extracts (1 μg protein) were incubated in 50 μl MES buffer (50 mM, pH 6.7) containing 2 mM PMSF and varying concentrations of Ang I(0.1-10 μM) at 37° C. One μl of the reaction mixture was spotted onto ProteinChip arrays and analyzed as previously described in Cool, D. R. & Hardiman, A., “C-Terminal sequencing of peptide hormones using carboxypeptidase Y and SELDI-TOF mass spectrometry” Biotechniques 36, 32-34 (2004), incorporated herein by reference. […]. […]

ACE activity (conversion of Ang I to Ang II) ([1]; 0.44 mM 1, 10 phenanthroline): blocked
Structure (SMILES): c1cnc2c(c1)ccc1cccnc12 [1, 10 phenanthroline]

effect on renin activity [2]: no effect
Structure (SMILES): C[C@H](CS)C(=O)N1CCC[C@H]1C(=O)O [captopril]

ACE activity (conversion of Ang I to Ang II) ([1]; 10 mM EDTA): blocked
Structure (SMILES): O=C(O)CN(CCN(CC(=O)O)CC(=O)O)CC(=O)O [EDTA]
